Values quoted from earlier work in patent EP4772635A1, “RNAI AGENT TARGETING APP AND PHARMACEUTICAL USE THEREOF” (Tuojie Biotech (Shanghai) Co., Ltd., priority 2023, dated 2025).

Details: octanol-water partition coefficient, illustrative values in the definitions

Row | logKow | SMILES
1 | about 0.7 | NCCCCCCO [6-aminohexanol]
2 | 10.7 | CC(C)CCC[C@@H](C)[C@H]1CC[C@H]2[C@@H]3CC=C4C[C@@H](OC(=O)NCCCCCCO)CC[C@]4(C)[C@H]3CC[C@]12C [cholesteryl N-(hexan-6-ol)carbamate]
